We go through 4 compounds from patent US7741281B2, “Hepatitis C virus inhibitors” (Bristol-Myers Squibb Company, priority 2005, dated 2010).

In data set [1] the target is T1, HCV NS3/4A protease complex, BMS strain (UniProt P27958, species not given/STRAIN_BMS).
T1 construct: for H77 and J4L6S; fused on or other part: Three-lysine solubilizing tail at the end of NS4A, for the H77 and J4L6S constructs; Purification on Ni-NTA and the pET21b vector imply a His tag
The data set is described as follows: FRET peptide assay to monitor HCV NS3/4A proteolytic activity (BMS strain). In kind it is biochemical, HCV genotype 1a. The note with it: NS3/4A BMS strain; read-out: IC50 Activity Range. From the text: HCV NS3 protease complexes, derived from the BMS strain, H77 strain or J4L6S strain, were generated, as described below. These purified recombinant proteins were generated for use in a homogeneous assay (see below) to provide an indication of how effective compounds of the present disclosure would be in inhibiting HCV NS3 proteolytic activity.
Serum from an HCV-infected patient was obtained from Dr. T. Wright, San Francisco Hospital. An engineered full-length cDNA (compliment deoxyribonucleic acid) template of the HCV genome (BMS strain) was constructed from DNA fragments obtained by reverse transcription-PCR (RT-PCR) of serum RNA (ribonucleic acid) and using primers selected on the basis of homology between other genotype 1a strains. From the determination of the entire genome sequence, a genotype 1a was assigned to the HCV isolate according to the classification of Simmonds et al. (See P Simmonds, K A Rose, S Graham, S W Chan, F McOmish, B C Dow, E A Follett, P L Yap and H Marsden, J. Clin. Microbiol., 31(6), 1493-1503 (1993)). […] The infectious clones, H77 (1a genotype) and J4L6S (1b genotype) were obtained from R. Purcell (NIH) and the sequences are published in Genbank (AAB67036, see Yanagi, M., Purcell, R. H., Emerson, S. U. and Bukh, J. Proc. Natl. Acad. Sci. U.S.A. 94(16), 8738-8743 (1997); AF054247, see Yanagi, M., St Claire, M., Shapiro, M., Emerson, S. U., Purcell, R. H. and Bukh, J, Virology 244 (1), 161-172. (1998)).
The H77 and J4L6S strains were used for production of recombinant NS3/4A protease complexes. DNA encoding the recombinant HCV NS3/4A protease complex (amino acids 1027 to 1711) for these strains were manipulated as described by P. Gallinari et al. (see Gallinari P, Paolini C, Brennan D, Nardi C, Steinkuhler C, De Francesco R. Biochemistry. 38(17):5620-32, (1999)). Briefly, a three-lysine solubilizing tail was added at the 3′-end of the NS4A coding region. The cysteine in the P1 position of the NS4A-NS4B cleavage site (amino acid 1711) was changed to a glycine to avoid the proteolytic cleavage of the lysine tag. Furthermore, a cysteine to serine mutation was introduced by PCR at amino acid position 1454 to prevent the autolytic cleavage in the NS3 helicase domain. The variant DNA fragment was cloned in the pET21b bacterial expression vector (Novagen) and the NS3/4A complex was expressed in Escherichia. coli strain BL21 (DE3) (Invitrogen) following the protocol described by P. Gallinari et al. (see Gallinari P, Brennan D, Nardi C, Brunetti M, Tomei L, Steinkuhler C, De Francesco R., J Virol. 72(8):6758-69 (1998)) with modifications. Briefly, the NS3/4A protease complex expression was induced with 0.5 millimolar (mM) Isopropyl β-D-1-thiogalactopyranoside (IPTG) for 22 hours (h) at 20° C. A typical fermentation (1 Liter (L)) yielded approximately 10 grams (g) of wet cell paste. The cells were resuspended in lysis buffer (10 mL/g) consisting of 25 mM N-(2-Hydroxyethyl)Piperazine-N′-(2-Ethane Sulfonic acid) (HEPES), pH 7.5, 20% glycerol, 500 mM Sodium Chloride (NaCl), 0.5% Triton X-100, 1 microgram/milliliter (“μg/mL”) lysozyme, 5 mM Magnesium Chloride (MgCl2), 1 μg/ml DnaseI, 5 mM β-Mercaptoethanol (βME), Protease inhibitor-Ethylenediamine Tetraacetic acid (EDTA) free (Roche), homogenized and incubated for 20 minutes (min) at 4° C. The homogenate was sonicated and clarified by ultra-centrifugation at 235000 g for 1 h at 4° C. Imidazole was added to the supernatant to a final concentration of 15 mM and the pH adjusted to 8.0. The crude protein extract was loaded on a Nickel-Nitrilotriacetic acid (Ni-NTA) column pre-equilibrated with buffer B (25 mM HEPES, pH 8.0, 20% glycerol, 500 mM NaCl, 0.5% Triton X-100, 15 mM imidazole, 5 mM βME). The sample was loaded at a flow rate of 1 mL/min. The column was washed with 15 column volumes of buffer C (same as buffer B except with 0.2% Triton X-100). The protein was eluted with 5 column volumes of buffer D (same as buffer C except with 200 mM Imidazole). […]

For data set [2], the system named is HCV replicon in HUH-7 cells. Nature of the data set: HCV replicon FRET assay. In kind it is cell-based, HCV strain 1b. As to conditions: Hepatitis C virus, Huh-7; HCV replicon; read-out: EC50 Activity Range. The text has this:
An HCV replicon whole cell system was established as described by Lohmann V, Korner F, Koch J, Herian U, Theilmann L, Bartenschlager R., Science 285(5424):110-3 (1999). This system enabled us to evaluate the effects of our HCV Protease compounds on HCV RNA replication. Briefly, using the HCV strain 1b sequence described in the Lohmann paper (Assession number: AJ238799), an HCV cDNA was synthesized by Operon Technologies, Inc. (Alameda, Calif.), and the full-length replicon was then assembled in plasmid pGem9zf(+) (Promega, Madison, Wis.) using standard molecular biology techniques. The replicon consists of (i) the HCV 5′ UTR fused to the first 12 amino acids of the capsid protein, (ii) the neomycin phosphotransferase gene (neo), (iii) the IRES from encephalomyocarditis virus (EMCV), and (iv) HCV NS3 to NS5B genes and the HCV 3′ UTR. Plasmid DNAs were linearized with ScaI and RNA transcripts were synthesized in vitro using the T7 MegaScript transcription kit (Ambion, Austin, Tex.) according to manufacturer's directions. In vitro transcripts of the cDNA were transfected into the human hepatoma cell line, HUH-7. […] Resulting cell lines were characterized for positive and negative strand RNA production and protein production over time.
The HCV replicon FRET assay was developed to monitor the inhibitory effects of compounds described in the disclosure on HCV viral replication. HUH-7 cells, constitutively expressing the HCV replicon, were grown in Dulbecco's Modified Eagle Media (DMEM) (Gibco-BRL) containing 10% Fetal calf serum (FCS) (Sigma) and 1 mg/ml G418 (Gibco-BRL). Cells were seeded the night before (1.5×10^4 cells/well) in 96-well tissue-culture sterile plates. Compound and no compound controls were prepared in DMEM containing 4% FCS, 1:100 Penicillin/Streptomysin (Gibco-BRL), 1:100 L-glutamine and 5% DMSO in the dilution plate (0.5% DMSO final concentration in the assay). Compound/DMSO mixes were added to the cells and incubated for 4 days at 37° C. After 4 days, cells were first assessed for cytotoxicity using alamar Blue (Trek Diagnotstic Systems) for a CC50 reading. The toxicity of compound (CC50) was determined by adding 1/10th volume of alamar Blue to the media incubating the cells. After 4 hours, the fluorescence signal from each well was read, with an excitation wavelength at 530 nm and an emission wavelength of 580 nm, using the Cytofluor Series 4000 (Perspective Biosystems). Plates were then rinsed thoroughly with Phosphate-Buffered Saline (PBS) (3 times 150 μl). The cells were lysed with 25 μl of a lysis assay reagent containing an HCV protease substrate (5× cell Luciferase cell culture lysis reagent (Promega #El 53A) diluted to 1× with distilled water, NaCl added to 150 mM final, the FRET peptide substrate (as described for the enzyme assay above) diluted to 10 μM final from a 2 mM stock in 100% DMSO. […]. The plate was then placed into the Cytofluor 4000 instrument which had been set to 340 nm excitation/490 nm emission, automatic mode for 21 cycles and the plate read in a kinetic mode. EC50 determinations were carried out as described for the IC50 determinations.
(In general: Replicon systems follow genome replication, usually without infectious particles.)

Each structure is given as a SMILES string.

T1 sequence (P27958 1027-1657, change not shown, one chain of several): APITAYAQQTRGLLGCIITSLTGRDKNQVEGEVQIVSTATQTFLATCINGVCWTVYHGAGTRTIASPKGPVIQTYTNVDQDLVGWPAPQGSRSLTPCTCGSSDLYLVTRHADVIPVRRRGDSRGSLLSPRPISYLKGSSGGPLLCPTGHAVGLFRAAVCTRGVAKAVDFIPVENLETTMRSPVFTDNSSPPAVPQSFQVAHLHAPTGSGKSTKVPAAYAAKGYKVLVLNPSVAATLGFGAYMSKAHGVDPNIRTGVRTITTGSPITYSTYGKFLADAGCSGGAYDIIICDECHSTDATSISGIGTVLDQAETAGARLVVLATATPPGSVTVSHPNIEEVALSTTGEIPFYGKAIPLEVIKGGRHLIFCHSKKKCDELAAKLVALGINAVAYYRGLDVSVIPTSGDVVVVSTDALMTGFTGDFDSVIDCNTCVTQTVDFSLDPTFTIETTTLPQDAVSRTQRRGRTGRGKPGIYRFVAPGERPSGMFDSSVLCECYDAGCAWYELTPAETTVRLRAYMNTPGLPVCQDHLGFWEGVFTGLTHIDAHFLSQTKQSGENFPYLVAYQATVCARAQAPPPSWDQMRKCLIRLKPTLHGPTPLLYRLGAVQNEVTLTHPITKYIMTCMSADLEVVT

The term IC50 denotes the midpoint of a concentration-inhibition curve. A word on the EC50: it is the concentration that produces a half-maximal response. On to `CC(C)(C)OC(=O)N[C@H]1CCCCC/C=C\[C@@H]2C[C@@]2(C(=O)NS(=O)(=O)C2CC2)NC(=O)[C@@H]2C[C@@H](Oc3ccc([N+](=O)[O-])cc3)CN2C1=O` [Compound 2], for which, in data set [1], the IC50 was less than 100 nM. Also, the EC50 in data set [2] was more than 1000 nM.

With `CC(C)(C)OC(=O)N[C@H]1CCCOC/C=C\[C@@H]2C[C@@]2(C(=O)NS(=O)(=O)C2CC2)NC(=O)[C@@H]2C[C@@H](OC(C)(C)C)CN2C1=O` [Compound 6, (1S,4R,6S,14S,18R,7-cis)-18-tert-butoxy-14-tert-butoxycarbonylamino-4-cyclopropanesulfonylaminocarbonyl-2,15-dioxo-3,16-diaza-10-oxatricyclo[14.3.0.0^4,6]nonadec-7-ene], the IC50 in data set [1] fell in the range of 100 to 1000 nM. Also, the concentration for a half-maximal effect (EC50) in data set [2] was more than 1000 nM.

For orientation: melting point means the temperature, or range, at which the solid turns liquid. `CC(C)(C)OC(=O)N[C@H]1CCCOC/C=C\[C@@H]2C[C@@]2(C(=O)NS(=O)(=O)C2CC2)NC(=O)[C@@H]2C[C@@H](OCc3ccccc3)CN2C1=O` [Compound 5, (1S,4R,6S,14S,18R,7-cis)-18-benzyloxy-14-tert-butoxycarbonylamino-4-cyclopropanesulfonylaminocarbonyl-2,15-dioxo-3,16-diaza-10-oxatricyclo[14.3.0.0^4,6]nonadec-7-ene]: the melting point was 147 to 149 °C. The IC50 in data set [1] was less than 100 nM. Moreover, the EC50 in data set [2] was more than 1000 nM.

For the compound `CC(C)(C)OC(=O)N[C@H]1CCCCC/C=C\[C@@H]2C[C@@]2(C(=O)NS(=O)(=O)C2CC2)NC(=O)[C@@H]2C[C@@H](Oc3ccccn3)CN2C1=O` [Compound 1], the IC50 in data set [1] is less than 100 nM. The EC50 in data set [2] was 100 to 1000 nM.
